Patent US8685977B2, “Chemical compounds” (Pfizer Limited, priority 2010, dated 2014)

Biological target: T1, Nav1.7 (or SCN9A) channel (Homo sapiens, UniProt Q15858)
T1 construct: expressed in transfected cells
Assay: Nav1.7 PatchXpress 7000 automated electrophysiology assay (HEK cells stably expressing hSCN9A)
Type: cell-based
Details: voltage-clamped at V1/2 of inactivation, read-out: Nav1.7 EIC50
Procedure: The ability of the compounds of formula (I) to block the Nav1.7 (or SCN9A) channel was measured using the assays described below.
Human Embryonic Kidney (HEK) cells were transfected with an hSCN9A construct using lipofectamine reagent (Invitrogen), using standard techniques. Cells stably expressing the hSCN9A constructs were identified by their resistance to G-418 (400 μg/ml). Clones were screened for expression using the whole-cell voltage-clamp technique.
HEK cells stably transfected with hSCN9A were maintained in DMEM medium supplemented with 10% heat-inactivated fetal bovine serum and 400 μg/ml G-418 in an incubator at 37° C. with a humidified atmosphere of 10% CO2. For HTS, cells were harvested from flasks by trypsinization and replated in an appropriate multi-well plate (typically 96 or 384 wells/plate) such that confluence would be achieved within 24 hours of plating. For electrophysiological studies, cells were removed from the culture flask by brief trypsinization and re-plated at low density onto glass cover slips. Cells were typically used for electrophysiological experiments within 24 to 72 hours after plating.
Cover slips containing HEK cells expressing hSCN9A were placed in a bath on the stage of an inverted microscope and perfused (approximately 1 ml/minutes) with extracellular solution of the following composition: 138 mM NaCl, 2 mM CaCl2, 5.4 mM KCl, 1 mM MgCl2, 10 mM glucose, and 10 mM HEPES, pH 7.4, with NaOH. […] The osmolarity of the extracellular and intracellular solutions was 300 mOsm/kg and 295 mOsm/kg, respectively. All recordings were made at room temperature (22-24° C.) using AXOPATCH 200B amplifiers and PCLAMP software (Axon Instruments, Burlingame, Calif.).
HEK cells stably transfected with hSCN9A were viewed under Hoffman contrast optics and placed in front of an array of flow pipes emitting either control or compound-containing extracellular solutions. All compounds were dissolved in dimethyl sulfoxide to make 10 mM stock solutions, which were then diluted into extracellular solution to attain the final concentrations desired. […] The voltage-dependence of inactivation was determined by applying a series of depolarizing prepulses (8 sec long in 10 mV increments) from a negative holding potential. The voltage was then immediately stepped to 0 mV to assess the magnitude of the sodium current. Currents elicited at 0 mV were plotted as a function of prepulse potential to allow estimation of the voltage at which 50% of the channels were inactivated (midpoint of inactivation or V1/2). Compounds were tested for their ability to inhibit hSCN9A sodium channels by activating the channel with a 20 msec voltage step to 0 mV following an 8 second conditioning prepulse to the empirically determined V1/2. Compound effect (% inhibition) was determined by difference in current amplitude before and after application of test compounds. For ease of comparison, “estimated IC-50” (EIC50) values were calculated from single point electrophysiology data by the following equation, (tested concentration, uM)×(100-% inhibition/% inhibition). Inhibition values <20% and >80% were excluded from the calculation.
Electrophysiological assays were conducted with PatchXpress 7000 hardware and associated software (Molecular Devices Corp). All assay buffers and solutions were identical to those used in conventional whole-cell voltage clamp experiments described above. hSCN9A cells were grown as above to 50%-80% confluency and harvested by trypsinization. Trypsinized cells were washed and resuspended in extracellular buffer at a concentration of 1×10^6 cells/ml. The onboard liquid handling facility of the PatchXpress was used for dispensing cells and application of test compounds. Determination of the voltage midpoint of inactivation was as described for conventional whole-cell recordings. Cells were then voltage-clamped to the empirically determined V1/2 and current was activated by a 20 msec voltage step to 0 mV. […]

T1 sequence (Q15858 whole entry): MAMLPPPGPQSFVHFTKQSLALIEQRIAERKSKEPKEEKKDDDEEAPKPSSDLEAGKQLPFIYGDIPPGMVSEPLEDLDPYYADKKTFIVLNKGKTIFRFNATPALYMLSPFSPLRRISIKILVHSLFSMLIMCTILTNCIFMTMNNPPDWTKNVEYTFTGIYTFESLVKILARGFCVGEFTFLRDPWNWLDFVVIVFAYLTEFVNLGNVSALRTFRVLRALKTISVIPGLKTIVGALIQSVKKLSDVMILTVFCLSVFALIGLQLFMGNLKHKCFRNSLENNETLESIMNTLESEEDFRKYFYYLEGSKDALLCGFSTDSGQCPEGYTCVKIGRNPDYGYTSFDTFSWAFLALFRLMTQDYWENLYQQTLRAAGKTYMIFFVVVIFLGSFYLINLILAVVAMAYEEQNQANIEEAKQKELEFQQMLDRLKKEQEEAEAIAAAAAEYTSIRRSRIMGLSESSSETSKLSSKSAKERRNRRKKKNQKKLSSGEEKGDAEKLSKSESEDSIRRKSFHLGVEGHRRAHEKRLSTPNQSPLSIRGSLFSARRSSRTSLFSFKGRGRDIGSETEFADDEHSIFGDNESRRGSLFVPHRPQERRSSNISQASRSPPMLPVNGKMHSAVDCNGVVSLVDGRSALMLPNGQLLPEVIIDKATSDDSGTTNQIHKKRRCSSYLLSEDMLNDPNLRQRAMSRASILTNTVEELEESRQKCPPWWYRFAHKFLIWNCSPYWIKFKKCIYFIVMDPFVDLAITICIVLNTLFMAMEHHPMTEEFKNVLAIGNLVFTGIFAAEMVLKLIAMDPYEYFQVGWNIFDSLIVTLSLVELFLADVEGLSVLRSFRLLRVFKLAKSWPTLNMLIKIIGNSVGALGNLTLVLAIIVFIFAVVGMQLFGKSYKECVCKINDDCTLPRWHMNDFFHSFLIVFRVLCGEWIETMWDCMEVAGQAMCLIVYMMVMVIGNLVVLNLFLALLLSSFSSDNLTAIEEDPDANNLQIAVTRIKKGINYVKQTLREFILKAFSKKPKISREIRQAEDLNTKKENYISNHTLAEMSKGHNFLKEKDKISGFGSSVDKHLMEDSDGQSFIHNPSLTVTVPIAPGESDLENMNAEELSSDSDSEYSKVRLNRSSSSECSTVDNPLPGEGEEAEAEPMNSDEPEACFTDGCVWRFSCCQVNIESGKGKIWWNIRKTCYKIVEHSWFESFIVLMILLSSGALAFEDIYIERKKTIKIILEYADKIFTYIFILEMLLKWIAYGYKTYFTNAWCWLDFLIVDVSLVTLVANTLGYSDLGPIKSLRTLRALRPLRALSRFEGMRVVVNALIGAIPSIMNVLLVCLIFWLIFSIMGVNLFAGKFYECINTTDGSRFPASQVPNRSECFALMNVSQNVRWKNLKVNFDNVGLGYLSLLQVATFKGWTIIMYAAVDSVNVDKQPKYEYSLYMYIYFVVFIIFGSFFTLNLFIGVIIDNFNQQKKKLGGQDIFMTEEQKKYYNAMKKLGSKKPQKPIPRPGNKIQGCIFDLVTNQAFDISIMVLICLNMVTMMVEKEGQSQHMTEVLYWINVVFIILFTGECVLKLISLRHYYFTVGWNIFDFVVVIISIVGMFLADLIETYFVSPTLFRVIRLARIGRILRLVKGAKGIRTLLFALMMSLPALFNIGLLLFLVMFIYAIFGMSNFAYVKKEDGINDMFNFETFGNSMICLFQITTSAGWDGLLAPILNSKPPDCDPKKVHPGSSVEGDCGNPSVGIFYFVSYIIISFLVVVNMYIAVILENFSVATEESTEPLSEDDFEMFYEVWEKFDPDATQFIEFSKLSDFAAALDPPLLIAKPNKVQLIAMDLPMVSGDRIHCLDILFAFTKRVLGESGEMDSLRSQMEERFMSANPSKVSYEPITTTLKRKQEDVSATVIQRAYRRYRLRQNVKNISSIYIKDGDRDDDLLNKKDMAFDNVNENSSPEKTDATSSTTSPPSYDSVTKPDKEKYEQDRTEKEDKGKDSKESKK

Row | Structure (SMILES) | IC50
1 | CS(=O)(=O)NC(=O)c1cc(F)c(Oc2cccc(Cl)c2F)cc1F [Example 149, 4-(3-chloro-2-fluorophenoxy)-2,5-difluoro-N-(methylsulfonyl)benzamide] | > 1 µM
2 | Cc1ccc(Cl)c(Oc2ccc(C(=O)NS(C)(=O)=O)cc2)c1 [Example 180, 4-(2-chloro-5-methylphenoxy)-N-(methylsulfonyl)benzamide] | 32 µM
3 | COc1cc(Cl)ccc1Oc1ccc(C(=O)NS(C)(=O)=O)c(F)c1 [Example 64, 4-(4-chloro-2-methoxyphenoxy)-2-fluoro-N-(methylsulfonyl)benzamide] | > 3 µM
4 | CC(C)c1ccccc1Oc1cc(F)c(C(=O)NS(C)(=O)=O)cc1F [Example 93, 2,5-difluoro-4-(2-isopropylphenoxy)-N-(methylsulfonyl)benzamide] | > 1 µM
5 | COc1ccc(C)cc1Oc1ccc(C(=O)NS(C)(=O)=O)cc1 [Example 185, 4-(2-methoxy-5-methylphenoxy)-N-(methylsulfonyl)benzamide] | 21 µM
6 | Cc1cccc(Oc2ccc(C(=O)NS(C)(=O)=O)cc2)c1C [Example 184, 4-(2,3-dimethylphenoxy)-N-(methylsulfonyl)benzamide] | 24 µM
7 | Cc1cccc(C)c1Oc1cc(F)c(C(=O)NS(C)(=O)=O)cc1F [Example 104, 4-(2,6-dimethylphenoxy)-2,5-difluoro-N-(methylsulfonyl)benzamide] | > 3 µM
8 | Cc1ccc(Oc2ccc(C(=O)NS(C)(=O)=O)cc2)cc1C [Example 167, 4-(3,4-dimethylphenoxy)-N-(methylsulfonyl)benzamide] | 12 µM
9 | CS(=O)(=O)NC(=O)c1c(F)cc(Oc2ccc(Cl)c(C(F)(F)F)c2)cc1F [Example 31, 4-(4-chloro-3-(trifluoromethyl)phenoxy)-2,6-difluoro-N-(methylsulfonyl)benzamide] | 5.7 µM
10 | COc1ccc(Cl)c(Oc2ccc(C(=O)NS(C)(=O)=O)cc2)c1 [Example 194, 4-(2-chloro-5-methoxyphenoxy)-N-(methylsulfonyl)benzamide] | > 10 µM
11 | CS(=O)(=O)NC(=O)c1cc(F)c(Oc2ccc(F)cc2C2CC2)cc1F [Example 126, 4-(2-cyclopropyl-4-fluorophenoxy)-2,5-difluoro-N-(methylsulfonyl)benzamide] | > 1 µM
12 | COc1ccc(C#N)cc1Oc1cc(F)c(C(=O)NS(C)(=O)=O)cc1F [Example 88, 4-(5-cyano-2-methoxyphenoxy)-2,5-difluoro-N-(methylsulfonyl)benzamide] | > 3 µM
13 | CCS(=O)(=O)NC(=O)c1ccc(Oc2ccccc2)cc1 [Example 307, N-(ethylsulfonyl)-4-phenoxybenzamide] | 9.7 µM
14 | CS(=O)(=O)NC(=O)c1ccc(Oc2ccc(C(F)(F)F)cc2-c2ccnnc2)cc1 [Example 50, N-(methylsulfonyl)-4-(2-(pyridazin-4-yl)-4-(trifluoromethyl)phenoxy)benzamide] | > 3 µM
15 | CCOc1ccccc1Oc1cc(F)c(C(=O)NS(C)(=O)=O)cc1F [Example 98, 4-(2-ethoxyphenoxy)-2,5-difluoro-N-(methylsulfonyl)benzamide] | > 1 µM
16 | CS(=O)(=O)NC(=O)c1cc(F)c(Oc2cccc(F)c2)cc1F [Example 142, 2,5-difluoro-4-(3-fluorophenoxy)-N-(methylsulfonyl)benzamide] | > 3 µM
17 | CS(=O)(=O)NC(=O)c1cc(F)c(Oc2cc(F)cc(F)c2)cc1F [Example 128, 4-(3,5-difluorophenoxy)-2,5-difluoro-N-(methylsulfonyl)benzamide] | 11 µM

Continued by falling IC50, values first:

Row | IC50 | Structure (SMILES)
18 | 5.2 µM | CCc1cc(F)ccc1Oc1ccc(C(=O)NS(C)(=O)=O)cc1C#N [Example 22, 3-cyano-4-(2-ethyl-4-fluorophenoxy)-N-(methylsulfonyl)benzamide]
19 | 3.5 µM | CS(=O)(=O)NC(=O)c1ccc(Sc2ccc(Cl)c(Cl)c2)cc1 [Example 317, 4-[(3,4-Dichlorophenyl)sulfanyl]-N-(methylsulfonyl)benzamide]
20 | 2.8 µM | Cc1cc(Oc2ccc(C(=O)NS(C)(=O)=O)cc2F)ccc1F [Example 218, 3-fluoro-4-(4-fluoro-3-methylphenoxy)-N-(methylsulfonyl)benzamide]
21 | 1.7 µM | CCc1cc(Cl)ccc1Oc1cc(F)c(C(=O)NS(C)(=O)=O)cc1F [Example 3, 4-(4-Chloro-2-ethylphenoxy)-2,5-difluoro-N-(methylsulfonyl)benzamide]
22 | 0.97 µM | COc1cc(C(=O)NS(C)(=O)=O)ccc1Oc1ccc(Cl)c(Cl)c1 [Example 10, 4-(3,4-dichlorophenoxy)-3-methoxy-N-(methylsulfonyl)benzamide]
23 | 0.96 µM | Cc1cc(C(=O)NS(C)(=O)=O)ccc1Oc1cccc(Cl)c1 [Example 238, 4-(3-chlorophenoxy)-3-methyl-N-(methylsulfonyl)benzamide]
24 | 0.95 µM | CS(=O)(=O)NC(=O)c1ccc(Oc2ccc(Cl)c(Cl)c2)c(C#N)c1 [Example 29, 3-cyano-4-(3,4-dichlorophenoxy)-N-(methylsulfonyl)benzamide]
25 | 0.81 µM | O=C(NS(=O)(=O)C1CC1)c1ccc(Oc2ccc(Cl)c(C(F)(F)F)c2)cc1 [Example 1, 4-[4-Chloro-3-(trifluoromethyl)phenoxy]-N-(cyclopropylsulfonyl)benzamide]
26 | 0.62 µM | CS(=O)(=O)NC(=O)c1cc(Cl)c(Oc2cccc(Cl)c2)cc1F [Example 292, 5-chloro-4-(3-chlorophenoxy)-2-fluoro-N-(methylsulfonyl)benzamide]
27 | 0.5 µM | CS(=O)(=O)NC(=O)c1cc(F)c(Oc2ccc(C(F)(F)F)c(Cl)c2)cc1F [Example 33, 4-(3-chloro-4-(trifluoromethyl)phenoxy)-2,5-difluoro-N-(methylsulfonyl)benzamide]
28 | 0.27 µM | CS(=O)(=O)NC(=O)c1ccc(Oc2cccc(C(F)(F)F)c2)c(Cl)c1 [Example 266, 3-chloro-N-(methylsulfonyl)-4-[3-(trifluoromethyl)phenoxy]benzamide]
29 | 0.26 µM | CS(=O)(=O)NC(=O)c1cc(Cl)c(Oc2ccc(OC(F)F)c(Cl)c2)cc1F [Example 51, 5-chloro-4-[3-chloro-4-(difluoromethoxy)phenoxy]-2-fluoro-N-(methylsulfonyl)benzamide]
30 | 0.23 µM | Cc1cc(C(=O)NS(C)(=O)=O)ccc1Oc1ccc(Cl)c(Cl)c1 [Example 81, 4-(3,4-dichlorophenoxy)-3-methyl-N-(methylsulfonyl)benzamide]
31 | 0.22 µM | CS(=O)(=O)NC(=O)c1ccc(Oc2ccc(Cl)cc2)c(Cl)c1 [Example 214, 3-chloro-4-(4-chlorophenoxy)-N-(methylsulfonyl)benzamide]
32 | 0.21 µM | CS(=O)(=O)NC(=O)c1cc(Cl)c(Oc2ccc(Cl)c(OC(F)F)c2)cc1F [Example 48, 5-chloro-4-[4-chloro-3-(difluoromethoxy)phenoxy]-2-fluoro-N-(methylsulfonyl)benzamide]
33 | 0.14 µM | CS(=O)(=O)NC(=O)c1ccc(Oc2ccc(Cl)c(Cl)c2)c(Cl)c1 [Example 82, 3-chloro-4-(3,4-dichlorophenoxy)-N-(methylsulfonyl)benzamide]
34 | 0.063 µM | CS(=O)(=O)NC(=O)c1cc(Cl)c(Oc2ccc(Cl)cc2OC(F)(F)F)cc1F [Example 53, 5-chloro-4-[4-chloro-2-(trifluoromethoxy)phenoxy]-2-fluoro-N-(methylsulfonyl)benzamide]
35 | 0.04 µM | CS(=O)(=O)NC(=O)c1cc(Cl)c(Oc2ccc(Cl)c(C(F)(F)F)c2)cc1F [Example 16, 5-chloro-4-[4-chloro-3-(trifluoromethyl)phenoxy]-2-fluoro-N-(methylsulfonyl)benzamide]
36 | 0.035 µM | Cc1cc(C(=O)NS(C)(=O)=O)c(F)cc1Oc1ccc(Cl)c(C(F)(F)F)c1 [Example 8, 4-[4-chloro-3-(trifluoromethyl)phenoxy]-2-fluoro-5-methyl-N-(methylsulfonyl)benzamide]
